In US20260242416A1, “ANTIMICROBIAL PEPTIDES” (priority 2023, published 2026):
Converted amounts (≈) assume the structure as drawn. Like-named read-outs stand apart in the source and are kept apart here. Where a SMILES comes first, the peptide text is derived from it.

Experiments:
S. aureus ATCC 29213 = type: cell-based, Staphylococcus aureus
Summary of the method: (§1)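 CLSI broth microdilution adapted for cationic peptides, in Mueller-Hinton broth, inoculum 2-8×10^5 cfu/mL. Peptides serially diluted from 128 to 0.5 μg/mL in polypropylene plates, incubated 20-24 h at 37° C. MIC = lowest concentration without visible growth.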

[1] = tested on: Salmonella enterica serovar Enteritidis (human clinical isolate); type: cell-based
Summary of the method: as §1

E. coli ATCC 25922 = type: cell-based, Escherichia coli
Summary of the method: as §1

[2] = tested on: E. coli ATCC 25922, Salmonella Enteritidis, S. aureus ATCC 29213; assay: Broth microdilution, panel result (at least one / all strains), Example 2; type: cell-based; set-up: key to inhibitory activity (asterisk): *Indicates inhibitory activity; conditions: for inhibitory activity (asterisk): Table 14, against at least one of E. coli ATCC 25922, Salmonella Enteritidis, S. aureus ATCC 29213
Summary of the method: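 CLSI broth microdilution adapted for cationic peptides, in MHB with a final inoculum of 2-8×10^5 cfu/mL in polypropylene plates. Peptides were serially diluted from 128 down to 0.5 μg/mL and incubated 20-24 h at 37° C. MIC is the lowest concentration with no visible growth.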

[3] = serovar Enteritidis (human clinical isolate)

Which “MIC (ug/mL) S. aureus” value (S. aureus ATCC 29213; ATCC 29213) does the source give for `CC[C@H](C)[C@H](NC(=O)CN)C(=O)N[C@@H](Cc1ccccc1)C(=O)N[C@@H](CO)C(=O)N[C@@H](CC(C)C)C(=O)N[C@H](C(=O)N[C@@H](CCCCN)C(=O)NCC(=O)N[C@@H](C)C(=O)N[C@@H](C)C(=O)N[C@@H](CCCCN)C(=O)N[C@H](C(=O)N[C@H](C(=O)N[C@@H](C)C(=O)N[C@@H](CCCCN)C(=O)NCC(=O)N[C@@H](CC(C)C)C(=O)NCC(=O)O)C(C)C)C(C)C)[C@@H](C)CC` [PeNi3, GIFSLIKGAAKVVAKGLG] (H-GIFSLIKGAAKVVAKGLG-OH; N-terminus and C-terminus assumed) here?
Its value is 64 to 128 µg/mL.

What about the “MIC (ug/mL) S. Enteritidis” value [1, 3] of the same molecule?
Its value is 64 to 128 µg/mL.

What about the “MIC (ug/mL) E. coli” value (E. coli ATCC 25922; ATCC 25922) of the same molecule?
Its value is 16 to 32 µg/mL.

What about the “inhibitory activity (asterisk)” value [2] of the same molecule?
Its value is 1096.* GIFSLIKGAAKVVAKGLG.

What does the source list for `CC(C)C[C@H](NC(=O)CN)C(=O)N[C@@H](CC(C)C)C(=O)NCC(=O)N[C@@H](CCCCN)C(=O)N[C@H](C(=O)N[C@@H](CC(C)C)C(=O)NCC(=O)N[C@H](C(=O)NCC(=O)N[C@@H](CCCCN)C(=O)N[C@@H](CCCCN)C(=O)N[C@H](C(=O)N[C@@H](CC(C)C)C(=O)N[C@@H](CS)C(=O)O)C(C)C)C(C)C)C(C)C` [PeNi4, GLLGKVLGVGKKVLC] (H-GLLGKVLGVGKKVLC-OH; N-terminus and C-terminus assumed)?
MIC (ug/mL) S. aureus (S. aureus ATCC 29213; ATCC 29213): 4 to 8 µg/mL; MIC (ug/mL) S. Enteritidis [1, 3]: 4 to 8 µg/mL; MIC (ug/mL) E. coli (E. coli ATCC 25922; ATCC 25922): 8 to 16 µg/mL; inhibitory activity (asterisk) [2]: 424.* GLLGKVLGVGKKVLC

For `C[C@H](NC(=O)CN)C(=O)N1CCC[C@H]1C(=O)N[C@@H](CCCCN)C(=O)NCC(=O)N[C@@H](CS)C(=O)N[C@@H](Cc1c[nH]c2ccccc12)C(=O)N[C@H](C(=O)N[C@@H](CCCCN)C(=O)N[C@@H](CO)C(=O)N[C@@H](Cc1ccc(O)cc1)C(=O)N1CCC[C@H]1C(=O)N1CCC[C@H]1C(=O)N[C@@H](CCCCN)C(=O)N1CCC[C@H]1C(=O)N[C@@H](CS)C(=O)N[C@@H](CO)C(=O)NCC(=O)N[C@@H](CCCCN)C(=O)N[C@@H](CCCNC(=N)N)C(N)=O)[C@@H](C)O` [PeNi12] (H-GAPKGCWTKSYPPKPCSGKR-NH2; N-terminus and C-terminus assumed), which “MIC (ug/mL) S. aureus” value (S. aureus ATCC 29213; ATCC 29213) is on record?
Its value is >128/>128/>128 ug/mL.

And the “MIC (ug/mL) S. Enteritidis” value [1, 3]?
Its value is >128/>128/>128 ug/mL.

What about the “MIC (ug/mL) E. coli” value (E. coli ATCC 25922; ATCC 25922) of the same molecule?
The value was >128/>128/>128 ug/mL.

What about the “spectrum of antimicrobial activity” value ([2]; panel of E. coli, Salmonella Enteritidis, S. aureus, up to 128 μg/mL) of the same molecule?
Its value is “non-inhibitory against the panel of bacteria at the concentrations tested”.

For `CC[C@H](C)[C@H](N)C(=O)N[C@@H](CO)C(=O)N[C@H](C(=O)N[C@@H](CCCCN)C(=O)N[C@@H](CCC(=O)O)C(=O)N[C@@H](C)C(=O)N[C@@H](CC(C)C)C(=O)N[C@@H](CCC(=O)O)C(=O)N[C@@H](Cc1c[nH]cn1)C(=O)N[C@@H](CO)C(=O)N[C@@H](Cc1ccccc1)C(=O)N[C@@H](Cc1ccccc1)C(=O)N[C@@H](Cc1c[nH]cn1)C(=O)N[C@H](C(=O)N[C@H](C(=O)N1CCC[C@H]1C(=O)N[C@@H](CCCNC(=N)N)C(=O)N[C@@H](CCCCN)C(=O)N[C@@H](Cc1c[nH]c2ccccc12)C(=O)N[C@@H](CS)C(=O)N[C@@H](CCCCN)C(=O)N[C@@H](CCCCN)C(=O)N[C@@H](Cc1c[nH]cn1)C(=O)O)C(C)C)[C@@H](C)O)[C@@H](C)CC` [PoSn1] (H-ISIKEALEHSFFHTVPRKWCKKH-OH), which “MIC (ug/mL) S. aureus” value (S. aureus ATCC 29213; ATCC 29213) is on record?
The value was 64/>128/>128 ug/mL.

And the “MIC (ug/mL) S. Enteritidis” value [1, 3]?
Its value is 64/>128/>128 ug/mL.

What about the “MIC (ug/mL) E. coli” value (E. coli ATCC 25922; ATCC 25922) of the same molecule?
Its value is 64/>128/>128 ug/mL.

And the “inhibitory activity (asterisk)” value [2]?
Its value is 936.* ISIKEALEHSFFHTVPRKWCKKH.

With `CC[C@H](C)[C@H](NC(=O)[C@H](CO)NC(=O)[C@H](CC(C)C)NC(=O)[C@H](CO)NC(=O)[C@H](CCCCN)NC(=O)[C@H](CC(C)C)NC(=O)[C@H](C)NC(=O)[C@@H](N)[C@@H](C)O)C(=O)N[C@@H](CC(C)C)C(=O)N[C@@H](CCCCN)C(=O)N[C@@H](CCCCN)C(=O)N[C@@H](CC(C)C)C(=O)N[C@@H](C)C(=O)N[C@@H](CCCCN)C(=O)N[C@@H](CC(C)C)C(=O)N[C@@H](CC(N)=O)C(=O)N[C@@H](CCSC)C(=O)O` [PoSn2, TALKSLSILKKLAKLNM] (H-TALKSLSILKKLAKLNM-OH; N-terminus and C-terminus assumed) as the molecule, how does the “MIC (ug/mL) S. aureus” value (S. aureus ATCC 29213; Table 14, third value of the cell, three independent experiments, highest concentration tested 128) read?
Its value is > 128 µg/mL.

What about the “MIC (ug/mL) S. Enteritidis” value ([1]; Table 14, second value of the cell, three independent experiments, highest concentration tested 128) of the same molecule?
Its value is > 128 µg/mL.

And the “MIC (ug/mL) E. coli” value (E. coli ATCC 25922; Table 14, first value of the cell, three independent experiments, highest concentration tested 128)?
The value was 64 to 128 µg/mL.

And the “inhibitory activity (asterisk)” value [2]?
Its value is 942.* TALKSLSILKKLAKLNM.

With `CC[C@H](C)[C@H](NC(=O)CN)C(=O)N[C@@H](CC(C)C)C(=O)N[C@@H](CO)C(=O)NCC(=O)N[C@@H](CC(C)C)C(=O)N[C@@H](CC(C)C)C(=O)NCC(=O)N[C@@H](C)C(=O)NCC(=O)N[C@@H](CCCCN)C(=O)N[C@@H](CCCCN)C(=O)N[C@H](C(=O)N[C@H](C(=O)N[C@@H](CS)C(=O)NCC(=O)N[C@@H](CC(C)C)C(=O)N[C@@H](CO)C(=O)NCC(=O)N[C@@H](CCSC)C(=O)N[C@@H](CS)C(=O)O)C(C)C)[C@@H](C)CC` [RaOm2] (H-GILSGLLGAGKKIVCGLSGMC-OH; N-terminus and C-terminus assumed) as the molecule, how does the “MIC (ug/mL) S. aureus” value (S. aureus ATCC 29213; ATCC 29213) read?
Its value is > 128 µg/mL.

And the “MIC (ug/mL) S. Enteritidis” value [1, 3]?
Its value is > 128 µg/mL.

And the “MIC (ug/mL) E. coli” value (E. coli ATCC 25922; ATCC 25922)?
Its value is 64 to 128 µg/mL.

And the “inhibitory activity (asterisk)” value [2]?
The value was 629.* GILSGLLGAGKKIVCGLSGMC.

How did the “MIC (ug/mL) S. aureus” value (S. aureus ATCC 29213; ATCC 29213) turn out when `CC[C@H](C)[C@H](NC(=O)CN)C(=O)N[C@@H](Cc1ccccc1)C(=O)N[C@@H](CO)C(=O)N[C@@H](CC(C)C)C(=O)N[C@H](C(=O)N[C@@H](CCCCN)C(=O)NCC(=O)N[C@@H](C)C(=O)N[C@@H](C)C(=O)N[C@@H](CCCCN)C(=O)N[C@H](C(=O)N[C@H](C(=O)N[C@@H](C)C(=O)N[C@@H](CCCCN)C(=O)NCC(=O)N[C@@H](CC(C)C)C(=O)NCC(=O)N[C@@H](CCCCN)C(=O)O)C(C)C)C(C)C)[C@@H](C)CC` [RaOm3, GIFSLIKGAAKVVAKGLGK] (H-GIFSLIKGAAKVVAKGLGK-OH; N-terminus and C-terminus assumed) was run?
The value was 64 µg/mL (≈ 34.5 µM).

What about the “MIC (ug/mL) S. Enteritidis” value [1, 3] of the same molecule?
Its value is 32 to 64 µg/mL.

And the “MIC (ug/mL) E. coli” value (E. coli ATCC 25922; ATCC 25922)?
Its value is 8 to 16 µg/mL.

What about the “inhibitory activity (asterisk)” value [2] of the same molecule?
The value was 1099.* GIFSLIKGAAKVVAKGLGK.

For `CC(C)C[C@H](NC(=O)CN)C(=O)N[C@@H](CC(C)C)C(=O)NCC(=O)N[C@@H](CCCCN)C(=O)N[C@H](C(=O)N[C@@H](CC(C)C)C(=O)NCC(=O)N[C@H](C(=O)NCC(=O)N[C@@H](CCCCN)C(=O)N[C@@H](CCCCN)C(=O)N[C@H](C(=O)N[C@@H](CC(C)C)C(=O)N[C@@H](CS)C(=O)NCC(=O)N[C@H](C(=O)N[C@@H](CO)C(=O)NCC(=O)N[C@@H](CCCNC(=N)N)C(=O)N[C@@H](CS)C(=O)O)C(C)C)C(C)C)C(C)C)C(C)C` [RaOm4] (H-GLLGKVLGVGKKVLCGVSGRC-OH; N-terminus and C-terminus assumed), which “MIC (ug/mL) S. aureus” value (S. aureus ATCC 29213; ATCC 29213) is on record?
The value was 64 to 128 µg/mL.

And the “MIC (ug/mL) S. Enteritidis” value [1, 3]?
The value was 32 µg/mL (≈ 15.7 µM).

What about the “MIC (ug/mL) E. coli” value (E. coli ATCC 25922; ATCC 25922) of the same molecule?
Its value is 4 to 8 µg/mL.

And the “inhibitory activity (asterisk)” value [2]?
The value was 628.* GLLGKVLGVGKKVLCGVSGRC.

What does the source list for `CC[C@H](C)[C@H](NC(=O)[C@H](CC(C)C)NC(=O)[C@H](CCCCN)NC(=O)[C@H](CC(C)C)NC(=O)CNC(=O)CNC(=O)[C@H](CCCCN)NC(=O)[C@@H](NC(=O)[C@H](CC(C)C)NC(=O)[C@H](CCCCN)NC(=O)CNC(=O)[C@@H](NC(=O)[C@H](CC(C)C)NC(=O)CN)C(C)C)C(C)C)C(=O)NCC(=O)N[C@@H](Cc1c[nH]cn1)C(=O)N[C@H](C(=O)N[C@@H](C)C(=O)N[C@@H](CC(N)=O)C(=O)NCC(=O)O)C(C)C` [RaSi1] (H-GLVGKLVKGGLKLIGHVANG-OH; N-terminus and C-terminus assumed)?
MIC (ug/mL) S. aureus (S. aureus ATCC 29213; ATCC 29213): 64 to 128 µg/mL; MIC (ug/mL) S. Enteritidis [1, 3]: > 128 µg/mL; MIC (ug/mL) E. coli (E. coli ATCC 25922; ATCC 25922): 8 to 16 µg/mL; inhibitory activity (asterisk) [2]: 2.* GLVGKLVKGGLKLIGHVANG

Which results are given for `CC[C@H](C)[C@H](NC(=O)[C@H](CCCNC(=N)N)NC(=O)[C@H](CCCNC(=N)N)NC(=O)[C@@H]1CCCN1C(=O)[C@H](CS)NC(=O)[C@H](CS)NC(=O)[C@H](Cc1ccc(O)cc1)NC(=O)[C@H](CS)NC(=O)[C@H](CC(C)C)NC(=O)[C@@H](NC(=O)[C@H](CCCNC(=N)N)NC(=O)[C@@H](NC(=O)[C@H](Cc1ccccc1)NC(=O)[C@H](C)N)C(C)C)[C@@H](C)CC)C(=O)N[C@@H](CCCCN)C(=O)N[C@@H](CCCNC(=N)N)C(=O)N[C@@H](CCCNC(=N)N)C(=O)O` [TeRu2, AFVRILCYCCPRRIKRR] (H-AFVRILCYCCPRRIKRR-OH; N-terminus and C-terminus assumed)?
MIC (ug/mL) S. aureus (S. aureus ATCC 29213; ATCC 29213): 128 µg/mL (≈ 59.4 µM); MIC (ug/mL) S. Enteritidis [1, 3]: > 128 µg/mL; MIC (ug/mL) E. coli (E. coli ATCC 25922; ATCC 25922): 64 to 128 µg/mL; inhibitory activity (asterisk) [2]: 994.* AFVRILCYCCPRRIKRR
